These results are taken from patent publication US20060062841A1, “Liposomal vectors” (priority 2004, published 2006).

One data set deals with TNF-α. The experiment in a line: Cytokine assay in the blood: TNF-α. The format is in vivo, mouse. The protocol:
FIG. 3A-C. Comparison the levels of TNF-α in blood (a), organs (b) and the blood levels of IL-12 and IFN-γ (c) after injection of the lipoplexes and safeplexes. The charge ratio of DOTA to DNA (+/−) (a) was varied from 0 to 12 and (b) and (c) was fixed at 6 to 1. The levels of cytokines were detected 2 h (a,b) or 6 h (c) after injection of the lipoplexes and safeplexes containing 25 μg pDNA. P<0.001 (three mice in each group).
FIG. 4A-B. Effect of (A) DEX dose and (B) time course on suppressing TNF-α. Mice were (three in each group) injected with the lipoplexes or safeplexes with (A) a varied ratio of DEX to DOTAP and (B) with a ratio of DEX to DOTAP of 1/10 (w/w). (a, b) The charge ratio of DOTAP to DNA was fixed at 6 to 1. P>0.5, P<0.001
FIG. 5. Inhibition of TNF-α production by other suppressors. The levels of TNF-α in the blood were analyzed 2 h after the injection of lipoplexes and safeplexes with a charge ratio of DNA to DOTAP of 1/6 (mol/mol). P<0.001 (n=3).
At indicated time points (2 h for TNF-α, 6 h for IL-12 and IFN-γ) following the injection of a tested sample containing 25 μg of pDNA, the blood and organs (the liver, lung and spleen) were collected. The blood was allowed to clot on ice for at least 4 h and then centrifuged at 3000 g for 20 min at 4° C., and serum was collected for the cytokine assay. For the organ assay, […] of each organ was added with 0.5 ml PBS buffer and homogenized for 20 s at the highest speed. The homogenates were frozen (in liquid nitrogen) and thawed (in 37° C. water bath) three times and then centrifuged at 14,000 g for 5 min. The supernatants were collected for the cytokine assay. The concentrations of cytokines (TNF-α, IL-12 and IFN-γ) were determined with mouse cytokine immunoassay kits (R&D System, Minneapolis, Minn.). Data were analyzed by the paired Student's t test using Excel. Data were considered statistically significant if P<0.01.

The test system of another data set is immune cells. The settings on record: sublethally irradiated mice, intraperitoneal injection; cited from earlier work.

In the case of Dexamethasone-Water Soluble [free DEX], the “inhibition of TNF-α” value in the data set with TNF-α (32 μg free DEX intravenously, immediately followed by DNA/DOTAP complexes) is “less than 45%”.
On to `C[C@]12C=CC(=O)C=C1CC[C@@H]1[C@@H]2C(=O)C[C@@]2(C)[C@H]1CC[C@]2(O)C(=O)CO` [prednisone], for which the “effect on TNF-α production in blood” value in the data set on TNF-α (mouse, in vivo) is on record as “showed the inhibitory effect”.
As to `COc1ccc2c(c1)c(CC(=O)O)c(C)n2C(=O)c1ccc(Cl)cc1` [indomethacin], the “effect on TNF-α production in blood” value in the data set on TNF-α (mouse, in vivo) is listed as “showed the inhibitory effect”.
For the compound `CN1C(=O)[C@]23CC4=CC=C[C@H](O)[C@H]4N2C(=O)[C@@]1(CO)SS3` [gliotoxin], the “recovery of immune cells” value in the data set with immune cells is listed as “significant delay”. Besides, in the data set on TNF-α (carried by safeplexes, inhibitor/DOTAP 1/6 mol/mol, 2 h after injection), the “effect on TNF-α production in blood” value is reported as “showed the inhibitory effect”.
With `COc1ccc2cc1Oc1ccc(cc1)C[C@H]1c3cc(c(OC)cc3CCN1C)Oc1c(OC)c(OC)cc3c1[C@H](C2)N(C)CC3` [tetrandrine], in the data set with TNF-α (mouse, in vivo), the “effect on TNF-α production in blood” value is reported as “showed the inhibitory effect”.
